The test system of series [1] is BV-2. The series is described as follows: Antineuroinflammatory activity in mouse BV2 cells assessed as inhibition of LPS-induced NO production after 24 hrs in presence of LPS by Griess reaction based assay. Type of series: functional, cell-based. The following applies: BV-2, 24 h. (The Griess reaction detects nitrite, a stable product of nitric oxide.)
Series [2] relates to BV-2. The series is described as follows: Cytotoxicity against mouse BV2 cells assessed as reduction in cell viability at 1 to 100 uM after 24 hrs in presence of LPS by MTT assay. It counts as cell-based. The conditions noted are these: bv-2, 24 h.

The term IC50 denotes the concentration that inhibits the measured activity by half. Take `COc1ccc(-c2coc3cc(O)ccc3c2=O)cc1O` [CALYCOSIN]: the IC50 in the series on BV-2 [1] was determined as 39.6 µM. Further, in the series with BV-2 [2], the Activity entry is reported as “Non-Toxic”.

Consider `COc1cc([C@H]2OC[C@H]3[C@@H]2CO[C@H]3c2cc(OC)c(O)c(OC)c2)cc(OC)c1O`, for which the half-maximal inhibitory concentration (IC50) with BV-2 [1] was above 100 µM.

For `O=C(O)/C=C/c1ccccc1` [CINNAMIC ACID], in the series on BV-2 [1], the IC50 was above 100 µM.

For `COc1cc([C@H]2OC[C@@H]3[C@H]2CO[C@@H]3c2cc(OC)c(O)c(OC)c2)ccc1O`, the half-inhibitory concentration (IC50) in the series on BV-2 [1] is above 100 µM.

For `COc1ccc(-c2coc3cc(O)ccc3c2=O)cc1` [FORMONONETIN], the IC50 in the series with BV-2 [1] is 13.2 µM. The Activity entry in the series on BV-2 [2] was “Non-Toxic”.

In the case of `COc1cc([C@@H]2OC[C@@H]3[C@H]2CO[C@H]3c2cc(OC)c(O)c(OC)c2)cc(OC)c1O`, the IC50 in the series with BV-2 [1] was above 100 µM.

As for `COc1cc([C@H]2OC[C@H]3[C@@H]2CO[C@@H]3c2cc(OC)c(O[C@@H]3O[C@H](CO)[C@@H](O)[C@H](O)[C@H]3O)c(OC)c2)cc(OC)c1O[C@@H]1O[C@H](CO)[C@@H](O)[C@H](O)[C@H]1O` [LIRIODENDRIN], in the series on BV-2 [1], the half-maximal inhibitory concentration (IC50) is above 100 µM.

In the case of `O=C(C[C@@H](O)c1ccc(O)c(O)c1)c1ccc(O)cc1O`, in the series with BV-2 [1], the IC50 turned out to be 72.6 µM. For the same compound, the Activity result in the series on BV-2 [2] was “Non-Toxic”.

In the case of `O=c1c(-c2ccc(O)c(O)c2)coc2cc(O)ccc12`, in the series on BV-2 [1], the IC50 is above 100 µM.

For the compound `O=C(O)/C=C/c1ccc(O)cc1` [COUMARIC ACID], the half-inhibitory concentration (IC50) in the series on BV-2 [1] was above 100 µM.

Consider `O=C(O)/C=C/c1ccccc1O` [O-COUMARIC ACID], for which the half-inhibitory concentration (IC50) with BV-2 [1] was above 100 µM.

For the compound `COc1cc(O)c(-c2cc3ccc(O)cc3oc2=O)cc1OC`, in the series on BV-2 [1], the 50% inhibitory concentration (IC50) came out at 1.01 µM. In addition, the Activity entry in the series with BV-2 [2] is on record as “Non-Toxic”.

For the compound `CC[C@H](CC[C@@H](C)[C@H]1CC[C@H]2[C@@H]3C(=O)C=C4C[C@@H](O)CC[C@]4(C)[C@H]3CC[C@]12C)C(C)C`, the half-maximal inhibitory concentration (IC50) in the series on BV-2 [1] was above 100 µM.

For `C=C(C)[C@@H]1CC[C@]2(C)CC[C@]3(C)[C@H](CC[C@@H]4[C@@]5(C)CC[C@H](O)C(C)(C)[C@@H]5CC[C@]43C)[C@@H]12` [LUPEOL], the half-inhibitory concentration (IC50) in the series with BV-2 [1] is above 100 µM.

Regarding `Oc1cc(O)cc(/C=C/c2ccc(O)c(O)c2)c1` [PICEATANNOL], in the series with BV-2 [1], the half-maximal inhibitory concentration (IC50) worked out at 80.5 µM. In addition, the Activity entry in the series on BV-2 [2] is “Non-Toxic”.

Turning to `O=C(/C=C/c1ccc(O)cc1)c1ccc(O)cc1O` [ISOLIQUIRITIGENIN], in the series with BV-2 [1], the IC50 was above 100 µM.

With `CCCCCCCCCCCCCCCCCCOC(=O)/C=C/c1ccc(O)c(O)c1`, the IC50 with BV-2 [1] was above 100 µM.

Take `COc1cc([C@H]2OC[C@H]3[C@@H]2CO[C@@H]3c2ccc(O)c(OC)c2)ccc1O`: in the series on BV-2 [1], the IC50 amounted to 76.2 µM. The Activity result with BV-2 [2] is on record as “Non-Toxic”.

As to `CCCCCCCCCCCCCCCCCCCCCCCCOC(=O)/C=C/c1ccc(O)c(OC)c1`, the IC50 with BV-2 [1] was above 100 µM.

With `CCCCCCCCCCCCCCCCCCCCCCCCCC(=O)O` [HEXACOSANOIC ACID], in the series with BV-2 [1], the concentration for half-maximal inhibition (IC50) was above 100 µM.

Turning to `O=c1c(O)c(-c2ccc(O)c(O)c2)oc2cc(O)ccc12` [FISETIN], the half-maximal inhibitory concentration (IC50) with BV-2 [1] came out at 73 µM. Moreover, the Activity result with BV-2 [2] is given as “Non-Toxic”.

Consider `O=C(O)c1ccc(O)cc1` [PARABEN], for which the IC50 with BV-2 [1] is above 100 µM.

Turning to `Oc1ccc(/C=C/c2cc(O)cc(O)c2)cc1` [RESVERATROL], the concentration for half-maximal inhibition (IC50) with BV-2 [1] was determined as 18.7 µM. In the series with BV-2 [2], the Activity result is “Non-Toxic”.

`COc1ccc(-c2coc3cc(O)cc(O)c3c2=O)cc1O` [PRATENSEIN]: the half-maximal inhibitory concentration (IC50) with BV-2 [1] is above 100 µM.

Regarding `O=Cc1ccc(O)c(O)c1` [PROTOCATECHUALDEHYDE], the IC50 in the series on BV-2 [1] was above 100 µM.

`CN(C)c1ccc(O)c2c1C[C@H]1C[C@H]3[C@H](N(C)C)C(O)=C(C(N)=O)C(=O)[C@@]3(O)C(O)=C1C2=O` [MINOCYCLINE]: the half-maximal inhibitory concentration (IC50) in the series on BV-2 [1] came to 9.07 µM.

`O=C1c2ccc(O)cc2O[C@@H](c2ccc(O)c(O)c2)[C@@H]1O`: in the series on BV-2 [1], the half-inhibitory concentration (IC50) was above 100 µM.

For `O=C(O)c1ccc(O)c(O)c1` [PROTOCATECHUIC ACID], the 50% inhibitory concentration (IC50) with BV-2 [1] is above 100 µM.

Turning to `C[N+](C)(C)C(Cc1c[nH]c2ccccc12)C(=O)[O-]` (centres undefined), the half-maximal inhibitory concentration (IC50) in the series with BV-2 [1] was above 100 µM.

On to `COc1ccc2c(c1)O[C@H](c1ccc(O)c(O)c1)CC2=O`, for which the half-maximal inhibitory concentration (IC50) with BV-2 [1] was above 100 µM.

With `COc1ccc(-c2coc3c(O)c(O)ccc3c2=O)cc1O`, the half-inhibitory concentration (IC50) with BV-2 [1] is 6.87 µM. Besides, in the series on BV-2 [2], the Activity result was “Non-Toxic”.

On to `Oc1cc(O)c2c(c1)C1C(c3cc(O)cc(O)c3[C@H]1c1ccc(O)c(O)c1)[C@@H]2c1ccc(O)c(O)c1` (some centres undefined), for which the concentration for half-maximal inhibition (IC50) in the series on BV-2 [1] was above 100 µM.

With `COc1ccc(-c2coc3cc(O)c(OC)cc3c2=O)cc1O` [ODORATIN], the IC50 in the series on BV-2 [1] came to 18.5 µM. Further, the Activity entry in the series with BV-2 [2] is listed as “Non-Toxic”.

As for `O=C1CC(c2cc(O)cc(O)c2)Oc2cc(O[C@@H]3O[C@H](CO)[C@@H](O)[C@H](O)[C@H]3O)cc(O)c21` (some centres undefined), the half-maximal inhibitory concentration (IC50) with BV-2 [1] was above 100 µM.
